# Data reported in the supplement of paper PMC10307832.
# What was measured:
# Experiment in all cases: relative viability (nuclei count vs DMSO), 5 days (fraction); higher = more cells survive
# [1] = system: LCLC-103H
# Method in brief: (§1)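 Relative viability is defined as nuclei in treated wells over nuclei in vehicle wells. Duplicate plates were run and medians reported. Lung cancer cell lines in 1536-well plates were dosed by pin tool one day after seeding, with one drug or with a fixed anchor-drug dose plus five library-drug doses (not always all listed) in √10 steps, and nuclei were counted after 5 days.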
# [2] = system: NCI-H2126
# Method in brief: as §1
# [3] = system: NCI-H2347
# Method in brief: as §1
# [4] = system: NCI-H1395
# Method in brief: as §1
# [5] = system: CAL-12T
# Method in brief: as §1
# [6] = system: ABC-1
# Method in brief: as §1
# [7] = system: LU99A
# Method in brief: as §1
# [8] = system: HCC-827
# Method in brief: as §1
# [9] = system: RERF-LC-KJ
# Method in brief: as §1
# [10] = system: SK-LU-1
# Method in brief: as §1
# [11] = system: NCI-H1755
# Method in brief: as §1
# [12] = system: LXF-289
# Method in brief: as §1
# [13] = system: HCC-44
# Method in brief: as §1
# [14] = system: NCI-H1944
# Method in brief: as §1
# [15] = system: NCI-H1792
# Method in brief: as §1
# [16] = system: ChaGo-K-1
# Method in brief: as §1
# [17] = system: NCI-H322M
# Method in brief: as §1
# [18] = system: NCI-H520
# Method in brief: as §1
# [19] = system: NCI-H3122
# Method in brief: as §1
# [20] = system: NCI-H1666
# Method in brief: as §1
# [21] = system: NCI-H358
# Method in brief: as §1
# [22] = system: NCI-H1793
# Method in brief: as §1
smiles,measurement,setting,value
CCNC(=O)c1noc(-c2cc(C(C)C)c(O)cc2O)c1-c1ccc(CN2CCOCC2)cc1 [Luminespib] + CS(=O)(=O)N1CCN(Cc2cc3nc(-c4cccc5[nH]ncc45)nc(N4CCOCC4)c3s2)CC1 [Pictilisib] (partner 1 µM),relative viability,[1]; first compound 0.002 µM,0.629
same,relative viability,[1]; first compound 0.006325 µM,0.5
same,relative viability,[1]; first compound 0.02 µM,0.466
same,relative viability,[1]; first compound 0.06325 µM,0.651
same,relative viability,[1]; first compound 0.2 µM,0.271
same,relative viability,[2]; first compound 0.002 µM,0.464
same,relative viability,[2]; first compound 0.006325 µM,0.503
same,relative viability,[2]; first compound 0.02 µM,0.399
same,relative viability,[2]; first compound 0.06325 µM,0.49
same,relative viability,[2]; first compound 0.2 µM,0.273
same,relative viability,[3]; first compound 0.002 µM,0.751
same,relative viability,[3]; first compound 0.006325 µM,0.609
same,relative viability,[3]; first compound 0.02 µM,0.45
same,relative viability,[3]; first compound 0.06325 µM,0.54
same,relative viability,[3]; first compound 0.2 µM,0.4
same,relative viability,[4]; first compound 0.002 µM,0.684
same,relative viability,[4]; first compound 0.006325 µM,0.725
same,relative viability,[4]; first compound 0.02 µM,0.429
same,relative viability,[4]; first compound 0.06325 µM,0.326
same,relative viability,[4]; first compound 0.2 µM,0.377
same,relative viability,[5]; first compound 0.002 µM,0.336
same,relative viability,[5]; first compound 0.006325 µM,0.395
same,relative viability,[5]; first compound 0.02 µM,0.25
same,relative viability,[5]; first compound 0.06325 µM,0.111
same,relative viability,[5]; first compound 0.2 µM,0.143
same,relative viability,[6]; first compound 0.002 µM,0.695
same,relative viability,[6]; first compound 0.006325 µM,0.693
same,relative viability,[6]; first compound 0.02 µM,0.407
same,relative viability,[6]; first compound 0.06325 µM,0.249
same,relative viability,[6]; first compound 0.2 µM,0.228
same,relative viability,[7]; first compound 0.002 µM,0.351
same,relative viability,[7]; first compound 0.006325 µM,0.36
same,relative viability,[7]; first compound 0.02 µM,0.226
same,relative viability,[7]; first compound 0.06325 µM,0.153
same,relative viability,[7]; first compound 0.2 µM,0.112
same,relative viability,[8]; first compound 0.002 µM,0.949
same,relative viability,[8]; first compound 0.006325 µM,1.02
same,relative viability,[8]; first compound 0.02 µM,0.802
same,relative viability,[8]; first compound 0.06325 µM,0.555
same,relative viability,[8]; first compound 0.2 µM,0.551
same,relative viability,[9]; first compound 0.002 µM,0.665
same,relative viability,[9]; first compound 0.006325 µM,0.636
same,relative viability,[9]; first compound 0.02 µM,0.375
same,relative viability,[9]; first compound 0.06325 µM,0.231
same,relative viability,[9]; first compound 0.2 µM,0.182
same,relative viability,[10]; first compound 0.002 µM,0.582
same,relative viability,[10]; first compound 0.006325 µM,0.403
same,relative viability,[10]; first compound 0.02 µM,0.243
same,relative viability,[10]; first compound 0.06325 µM,0.161
same,relative viability,[10]; first compound 0.2 µM,0.121
same,relative viability,[11]; first compound 0.002 µM,0.399
same,relative viability,[11]; first compound 0.006325 µM,0.372
same,relative viability,[11]; first compound 0.02 µM,0.351
same,relative viability,[11]; first compound 0.06325 µM,0.136
same,relative viability,[11]; first compound 0.2 µM,0.105
same,relative viability,[12]; first compound 0.002 µM,0.75
same,relative viability,[12]; first compound 0.006325 µM,0.809
same,relative viability,[12]; first compound 0.02 µM,0.714
same,relative viability,[12]; first compound 0.06325 µM,0.121
same,relative viability,[12]; first compound 0.2 µM,0.087
same,relative viability,[13]; first compound 0.002 µM,0.663
same,relative viability,[13]; first compound 0.006325 µM,0.641
same,relative viability,[13]; first compound 0.02 µM,0.62
same,relative viability,[13]; first compound 0.06325 µM,0.381
same,relative viability,[13]; first compound 0.2 µM,0.12
same,relative viability,[14]; first compound 0.002 µM,0.337
same,relative viability,[14]; first compound 0.006325 µM,0.258
same,relative viability,[14]; first compound 0.02 µM,0.262
same,relative viability,[14]; first compound 0.06325 µM,0.28
same,relative viability,[14]; first compound 0.2 µM,0.22
same,relative viability,[15]; first compound 0.002 µM,0.302
same,relative viability,[15]; first compound 0.006325 µM,0.273
same,relative viability,[15]; first compound 0.02 µM,0.13
same,relative viability,[15]; first compound 0.06325 µM,0.124
same,relative viability,[15]; first compound 0.2 µM,0.0905
same,relative viability,[16]; first compound 0.002 µM,0.782
same,relative viability,[16]; first compound 0.02 µM,0.501
same,relative viability,[16]; first compound 0.06325 µM,0.345
same,relative viability,[16]; first compound 0.2 µM,0.362
same,relative viability,[17]; first compound 0.002 µM,0.497
same,relative viability,[17]; first compound 0.006325 µM,0.525
same,relative viability,[17]; first compound 0.02 µM,0.447
same,relative viability,[17]; first compound 0.06325 µM,0.485
same,relative viability,[17]; first compound 0.2 µM,0.3
same,relative viability,[18]; first compound 0.002 µM,0.298
same,relative viability,[18]; first compound 0.006325 µM,0.334
same,relative viability,[18]; first compound 0.02 µM,0.209
same,relative viability,[18]; first compound 0.06325 µM,0.176
same,relative viability,[18]; first compound 0.2 µM,0.196
same,relative viability,[19]; first compound 0.002 µM,0.621
same,relative viability,[19]; first compound 0.006325 µM,0.621
same,relative viability,[19]; first compound 0.02 µM,0.368
same,relative viability,[19]; first compound 0.06325 µM,0.166
same,relative viability,[19]; first compound 0.2 µM,0.176
same,relative viability,[20]; first compound 0.002 µM,0.423
same,relative viability,[20]; first compound 0.006325 µM,0.375
same,relative viability,[20]; first compound 0.02 µM,0.315
same,relative viability,[20]; first compound 0.06325 µM,0.235
same,relative viability,[20]; first compound 0.2 µM,0.145
same,relative viability,[21]; first compound 0.002 µM,0.342
same,relative viability,[21]; first compound 0.006325 µM,0.311
same,relative viability,[21]; first compound 0.02 µM,0.222
same,relative viability,[21]; first compound 0.06325 µM,0.133
same,relative viability,[21]; first compound 0.2 µM,0.124
same,relative viability,[22]; first compound 0.002 µM,0.313
same,relative viability,[22]; first compound 0.006325 µM,0.342
same,relative viability,[22]; first compound 0.02 µM,0.12
same,relative viability,[22]; first compound 0.06325 µM,0.168
same,relative viability,[22]; first compound 0.2 µM,0.194
